Results published in patent publication US6420362B1, “Azines containing the 5,6-di-hydro-(1,4,2) dioxazine-3-yl group and the use thereof as fungicides” (priority 1997, dated 2002).

Assay: log P determination by HPLC (EEC Directive 79/831 Annex V. A8)
Type: physicochemical
Procedure: The log P values were determined in accordance with EEC Directive 79/831 Annex V. A8 by HPLC (gradient method, acetonitrile/0.1% strength aqueous phosphoric acid).
`CON=C(C)C(C)=NN=Cc1ccccc1C(=NOC)C1=NOCCO1` [Example 4, 3-({2-[(5,6-dihydro-[1,4,2]dioxazin-3-yl)-methoxyimino-methyl]-benzylidene}-hydrazono)-butan-2-one O-methyl oxime] gave a chromatographic logP of 3.17.
`CCON=C(C)C(C)=NN=Cc1ccccc1C(=NOC)C1=NOCCO1` [Example 17] showed a chromatographic logP of 3.61.
In the case of `CCC(=NOC)C(C)=NN=Cc1ccccc1/C(=N/OC)C1=NOCCO1` [Example 13], the chromatographic logP is reported as 3.58.
In the case of `CON=C(C(C)=NN=Cc1ccccc1/C(=N/OC)C1=NOCCO1)C(C)C` [Example 12], the chromatographic logP is reported as 3.92.
`CON=C(C1=NOCCO1)c1ccccc1C=NN=C(C)c1ccc(C(F)(F)F)cc1` [Example 2, (5,6-dihydro-[1,4,2]dioxazin-3-yl)-(2-{[1-(4-trifluoromethylphenyl)-ethylidene]-hydrazonomethyl}-phenyl)-methanone O-methyl oxime] gave a chromatographic logP of 3.8.
For `CON=C(C1=NOCCO1)c1ccccc1C=NN=C(C)c1cccc(C(F)(F)F)c1` [Example 1, (5,6-dihydro-[1,4,2]dioxazin-3-yl)-(2-{[1-(3-trifluoromethylphenyl)-ethylidene]-hydrazonomethyl}-phenyl)-methanone O-methyl oxime], the chromatographic logP was 3.8.
